Several values for one entry are separate records, joined by “and”; a condition that tells them apart may be missing. Identical values can stand only once. Where only a bound is given, the exact number is not on record here.

The test system of data set [1] is Prostaglandin E2 (PGE2) production. The data set is described as follows: Assay for Prostaglandin E2 (PGE2) inhibition in LPS-induced peripheral blood mononuclear cells (PBMC). The class given is cell-based. The note with it: LPS 10 ng/mL induction; for % Inhibition of PGE2: human PBMC. The procedure: Human blood was collected from healthy volunteers from a peripheral vein with a syringe containing EDTA at a final concentration of 2 mM. Plasma was separated by centrifugation at 1000 rpm for 10 minutes, and the residual blood was diluted with RPMI medium supplemented with 10% FBS and 2 mM EDTA in a ratio of 1:3. Thirty milliliters of blood was carefully layered onto the 15 mL of Ficoll/Lymphoprep in a 50 mL falcon tube, and tubes were centrifuged at 350×g for 30 minutes at an acceleration of 9 without using the brake. Buffy coat (interface between medium and Ficoll) containing peripheral blood mononuclear cells (PBMC) was collected carefully in 25 mL of cold 1× phosphate-buffered saline (PBS) and centrifuged at 1200 rpm for 10 minutes. Residual RBCs found in PBMCs pellet were removed by treating with ACK lysis buffer (Gibco Cat #A10492-01) and washed with fresh 1×PBS. PBMC were seeded in a 96-well plate with a density of 0.1×10^6 cells/well and treated with different concentrations of test samples. Cells with 0.2% DMSO served as vehicle control. The plate was incubated in a CO2 incubator at 37° C. for 2 hrs. Finally, cells were induced with LPS (10 ng/mL final concentration) for 4 hours except for vehicle control by keeping the plate at 37° C. in a CO2 incubator. The plate was centrifuged at 1200 rpm for 5 minutes, and 120 μL cell-free supernatants were collected. Quantitation of PGE2 was performed using an ELISA kit (Cayman Chemicals Cat #514010) according to the manufacturer's instructions. Absorbance was measured at 412 nm in a kinetic mode for 30 minutes in a microplate reader (Spectramax2e, Molecular Devices, USA). Percent Inhibition of PGE2 was calculated using the following formula. % Inhibition of PGE2=(Normalized conc. of PGE2 in Induction)−(Normalized conc. of PGE2 in Test sample)/×100 • (Normalized conc. of PGE2 in Induction)
The normalized PGE2 concentration in the LPS induced or the treated wells were obtained from deducting the […].

Data set [2] can be described thus: pH of 1% solution. The class given is physicochemical. On the procedure:
(§1) These potassium or sodium salts of AKBA were evaluated for their solubility in water and determined their pH.

The test system of data set [3] is Leukotriene B4 (LTB4) production. As to the kind of experiment: Assay for Leukotriene B4 (LTB4) inhibition in A23187-induced polymorphonuclear leukocytes (PMNs). The class given is cell-based. The note with it: human PMNs, 10 μM A23187 induction. On the procedure: Human blood was collected from healthy volunteers from a peripheral vein in the presence of 2 mM EDTA. Plasma was separated by centrifugation at 1000 rpm for 10 minutes, and the residual cell pellet was resuspended in RPMI medium supplemented with 10% FBS and 2 mM EDTA. Thirty milliliters of blood cell suspension was carefully overlayed onto 15 mL of Ficoll/Lymphoprep in a 50 mL falcon tube in the dark, and the tube was centrifuged at 350×g for 30 minutes without using the brake. After removing the peripheral blood mononuclear cells (PBMC) and Ficoll/Lymphoprep, the settled red blood cell (RBC) layer containing granulocytes was treated with ACK lysis buffer (Gibco Cat #A10492-01) to lyse the RBC. After centrifugation at 1200 rpm for 10 minutes, the resulting cell pellet of polymorphonuclear leukocytes (PMNs) was resuspended in RPMI containing 1% newborn calf serum (NBCS). These cells were seeded in a 96-well plate at a density of 50,000 cells/well and treated with different concentrations of the test samples. Cells with 0.2% DMSO served as vehicle control. The plate was incubated in a CO2 incubator at 37° C. for 2 hrs. Finally, the cells treated with test samples were induced with 10 μM A23187 for 10 minutes at 37° C. in a CO2 incubator. The cells treated with only A23187 served as induction control. The plate was centrifuged at 1200 rpm for 5 minutes, and 120 μL cell-free supernatants were collected. Quantitation of LTB4 was performed using an ELISA kit (R&D Systems, Cat #SKGE006B) following the manufacturer's instructions. Absorbance was measured at 450 nm with a correction wavelength of 570 nm in a plate reader (Spectramax2e, Molecular Devices, USA). The reduction of LTB4 production was calculated using the following formula. % reduction of LTB4=[(Normalized Conc. of LTB4 in Induction)−(Normalized Conc. of LTB4 in Test sample)]/(Normalized Conc. of LTB4 in Induction)×100 The results are presented in tables: 3-5.

The test system of data set [4] is C-reactive protein (CRP). As to the kind of experiment: Reduction of C-Reactive Protein (CRP) in muscle, exercise-induced DOMS model of rats. The class given is in vivo, Sprague Dawley rats. The note with it: 25 mg/kg for seven days; for Mean CRP conc.: EDL muscle tissue lysate; for % reduction of CRP from normal control: EDL muscle. On the procedure:
On day 1 of the study, male Sprague Dawley rats (8-12 weeks) were randomized into seven groups, each group contained seven animals. Basal readings (Paw Withdrawal Threshold) of mechanical hyperalgesia (Electronic von Frey) were obtained. Animals were dosed with either 25 mg/kg of the test items or vehicle (0.5% CMC-Na) for seven days. On day 5, Delayed Onset of Muscle Soreness (DOMS) was induced by introducing the animals to downhill treadmill running task (rate, 15 m/min; time, 5 min; incline, −20° followed by a 1-min rest, repeated 18 times) for 90 min or till exhaustion. Paw Withdrawal Threshold (PWT) was measured at 1 h, 4 h, 24 h (day 6) and 48 h (day 7) post to eccentric exercise and the exploratory behavior measurements were taken at 1 h and 4 h post to DOMS induction. Terminal necropsy was performed after euthanizing the animals under CO2 asphyxiation.
Small pieces of the extensor digitorum longus (EDL) muscles were macerated in liquid nitrogen (LN2) and homogenized in a tissue lysis buffer [50 mM Tris-HCl (pH 7.4), 150 mM NaCl, 5 mM EDTA, 0.5% sodium dodecyl sulfate (SDS), 1% deoxycholate, 0.1% Triton X-100, 1% Nonidet P-40 (NP-40), 0.05% mercaptoethanol, 10 mg/ml PMSF, 0.5 mg/ml leupeptin, 0.2 mg/ml aprotinin, and 1 mM Na3VO4]. The homogenate was centrifuged at 18928 g for 25 min at 4° C., and the supernatant was collected. Protein concentrations of the tissue lysates were determined using BCA protein assay kit (Thermo Fisher, Rockford, IL). C-reactive protein (CRP) concentrations in the muscle tissue lysates were determined using a commercial kit (Rat CRP/C-Reactive Protein ELISA Kit, Sigma, Cat #RAB0097) following the manufacturer's instructions, where the samples were diluted with assay buffer (1:10000) and performed the assay. The amount of CRP present in the tissue lysates was calculated and expressed as nanogram (ng) per milligram of protein. The reduction of CRP concentration in the muscle samples in the treated groups was calculated using the following formula.

A short description of data set [5]: Solubility in water of potassium or sodium salts of AKBA. The class given is physicochemical. The conditions noted are these: volume of water needed to completely dissolve 1.0 g; room temperature (RT). The procedure: as §1

For “potassium salt or complex or chelate of 3-O-acetyl-11-keto-β-boswellic acid [LN05]”, the “% Inhibition of PGE2” value in data set [1] (1.0 μg/mL) amounted to 24.42%; in data set [1] (2.5 μg/mL) it was 42.29%. Further, the “pH (1% solution)” value in data set [2] came out at 9.24. For the same molecule, the “% reduction of LTB4” value is 21.95% in data set [3] (1.0 μg/mL) and 57.57% in data set [3] (2.5 μg/mL).
Take “sodium salt of 3-O-acetyl-11-keto-β-boswellic acid [LN08]”: the “% Inhibition of PGE2” value in data set [1] (1.0 μg/mL) came out at 25.61%; in data set [1] (2.5 μg/mL), 47.56%. The “Mean CRP conc.” value in data set [4] is recorded as 58.99 ng/mg of protein. The “% reduction of CRP from normal control” value in data set [4] was determined as 55.94%. Also, in data set [2], the “pH (1% solution)” value is recorded as 8.74. The “% reduction of LTB4” value in data set [3] (1.0 μg/mL) worked out at 21.66%; in data set [3] (2.5 μg/mL), 46.10%.
Regarding “potassium salt or complex or chelate of 3-O-acetyl-11-keto-β-boswellic acid [LN07]”, the figures for the “% Inhibition of PGE2” value in data set [1] (1.0 μg/mL) and in data set [1] (2.5 μg/mL) were 26.50% and 49.08%, respectively. Also, the “Mean CRP conc.” value in data set [4] is recorded as 56.97 ng/mg of protein. The “% reduction of CRP from normal control” value in data set [4] came out at 60.75%. For the same molecule, the “Solubility of 1.0 g of product in water” value in data set [5] is on record as 60 mL. The “pH (1% solution)” value in data set [2] is reported as 9.21. Further, the entries for the “% reduction of LTB4” value in data set [3] (1.0 μg/mL) and in data set [3] (2.5 μg/mL) were 20.26% and 55.85%, respectively.
With “sodium salt of 3-O-acetyl-11-keto-β-boswellic acid [LN06]”, the “% Inhibition of PGE2” value in data set [1] (1.0 μg/mL) was 25.64%; in data set [1] (2.5 μg/mL) it was 41.23%. Moreover, in data set [5], the “Solubility of 1.0 g of product in water” value amounted to 80 mL. In addition, the “pH (1% solution)” value in data set [2] amounted to 9.27. Also, the “% reduction of LTB4” value in data set [3] (1.0 μg/mL) was 20.16%; in data set [3] (2.5 μg/mL), 47.97% and 47.87%.
On to `[Cl-].[K+]` [LN11, potassium chloride], for which, in data set [4], the “Mean CRP conc.” value is reported as 78.21 ng/mg of protein and the “% reduction of CRP from normal control” value is on record as 10.23%.
In the case of `CC(=O)O[C@@H]1CC[C@@]2(C)[C@@H](CC[C@]3(C)[C@@H]2C(=O)C=C2[C@@H]4[C@@H](C)[C@H](C)CC[C@]4(C)CC[C@]23C)[C@@]1(C)C(=O)O` [LN03, 3-O-acetyl-11-keto-β-boswellic acid], the “% Inhibition of PGE2” value in data set [1] (1.0 μg/mL) is 15.02%; in data set [1] (2.5 μg/mL), 26.28%. The “Mean CRP conc.” value in data set [4] is on record as 65.44 ng/mg of protein. The “% reduction of CRP from normal control” value in data set [4] was 40.60%. The “Solubility of 1.0 g of product in water” value in data set [5] is listed as over 1000 mL. In addition, the “pH (1% solution)” value in data set [2] is recorded as 6.63. Besides, the “% reduction of LTB4” value in data set [3] (1.0 μg/mL) amounted to 16.72%; in data set [3] (2.5 μg/mL) it was 26.83%.
What is called inhibition is the share of the control response that was lost under treatment. Consider `CC(=O)O[C@@H]1CC[C@@]2(C)[C@@H](CC[C@]3(C)[C@@H]2C(=O)C=C2[C@@H]4[C@@H](C)[C@H](C)CC[C@]4(C)CC[C@]23C)[C@@]1(C)C(=O)O` [LN04, 3-O-acetyl-11-keto-β-boswellic acid], for which, in data set [1] (Homo sapiens, PBMC, 1.0 μg/mL), the inhibition at 1 µg/mL turned out to be 17.2%. Also, the inhibition at 2.5 µg/mL in data set [1] (Homo sapiens, PBMC, 2.5 μg/mL) came to 20%. For the same molecule, in data set [5], the “Solubility of 1.0 g of product in water” value is recorded as over 1000 mL. For the same molecule, the “pH (1% solution)” value in data set [2] was determined as 6.64. The “% reduction of LTB4” value in data set [3] (1.0 μg/mL) came to 16.03%; in data set [3] (2.5 μg/mL) it was 28.71%.
In the case of `[Cl-].[Na+]` [LN12, sodium chloride], in data set [4], the “Mean CRP conc.” value is recorded as 78.04 ng/mg of protein and the “% reduction of CRP from normal control” value is on record as 10.64%.
